Data as given in US20250340532A1, “HETEROCYCLIC COMPOUND CCR4 INHIBITOR AND USER THEREOF” (Xizang Haisco Pharmaceutical Co., Ltd., priority 2022, published 2025).

Molecular target: T1, CCR4 (Homo sapiens, UniProt P51679)
T1 construct: expressed in transfected cells; host or cells: HEK293
T1 sequence (P51679 1-360): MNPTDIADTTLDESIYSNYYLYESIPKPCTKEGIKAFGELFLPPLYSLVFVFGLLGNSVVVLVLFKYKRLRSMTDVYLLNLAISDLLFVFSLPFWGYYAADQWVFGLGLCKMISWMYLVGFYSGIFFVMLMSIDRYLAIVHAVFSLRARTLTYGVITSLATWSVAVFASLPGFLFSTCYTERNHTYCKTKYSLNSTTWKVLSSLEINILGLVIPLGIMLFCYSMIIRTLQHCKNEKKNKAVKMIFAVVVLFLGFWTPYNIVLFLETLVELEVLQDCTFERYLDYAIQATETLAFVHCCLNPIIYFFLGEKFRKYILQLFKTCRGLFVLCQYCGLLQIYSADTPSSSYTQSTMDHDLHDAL
Assay: Calcium flow detected by FLIPR
Type: cell-based
Conditions: CCR4/HEK293 cells, agonist CCL17, Fluo-4 calcium signal
Experimental: CCR4/HEK293 cells were added to a 384-well cell culture plate (Greiner #781946) at a rate of 20 μL/well (20,000 cells/well) and incubated overnight in a 37° C., 5% CO2 incubator (Incubator, Thermo). On the second day, the 384-well cell culture plate was taken out of the incubator and the culture medium was removed; Then, 20 μL of detection buffer and 20 μL of 2X Fluo-4 Direct™ (Invitrogen, Cat #F10471) were added. Then, compounds were added at 10 μL/well (compounds were subjected to 4-fold serial dilution, and the highest detection concentration was 10 μM), and the cells were incubated in a 37° C., 5% CO2 incubator for 50 min, and then incubated at room temperature for 10 min. The 384-well culture plate was placed in FLIPR ([…]), 10 μL of 6X agonist CCL17 was added by using an automatic loader, and the fluorescence signal was read immediately. The mean and standard error (Mean±SEM) were statistically analyzed using Graphpad Prism software, and the IC50 value was calculated.
The experimental results are shown in Table 3, where A represents IC50<100 nm; B represents 100 nM≤IC50<500 nM, and C represents 500 nM≤IC50.

Row | SMILES | IC50 [nM]
1 | C#Cc1cc(Cl)ccc1C(C)Nc1nc(N2CC(C3CCCN(C4CC(C)(C(=O)O)C4)C3)C2)nc(C)c1Cl (single isomer, unassigned) [Compound 7 isomer 2] | 100 to 500
2 | Cc1nc(N2CC(C3CCCC(N4CC(C)(C(=O)O)C4)C3)C2)nc(NC(C)c2ccc(Cl)cc2Cl)c1Cl (single isomer, unassigned) [Compound 8 isomer 1] | 100 to 500
3 | Cc1nc(N2CC(C3CCCN(C4CC(C)(C(=O)O)C4)C3)C2)nc(NC(C)c2cc(Cl)sc2Cl)c1Cl (single isomer, unassigned) [Compound 10 isomer 1] | 100 to 500
4 | C#Cc1ccc(C(C)Nc2nc(N3CC([C@H]4CCCN([C@H]5C[C@](C)(C(=O)O)C5)C4)C3)nc(C)c2Cl)c(Cl)c1 (single isomer, unassigned) [Compound 11 isomer 1] | < 100
5 | Cc1nc(N2CC(N3CCCC(N4CC(C)(C(=O)O)C4)C3)C2)nc(NC(C)c2ccc(Cl)cc2Cl)c1Cl (single isomer, unassigned) [Compound 16 isomer 1] | 100 to 500
6 | Cc1nc(N2CC(N3CCCC(N4CC(C)(C(=O)O)C4)C3)C2)nc(NC(C)c2ccc(Cl)cc2Cl)c1Cl (single isomer, unassigned) [Compound 16 isomer 2] | < 100
7 | Cc1nc(C#CC2CCCN(C3CC(C)(C(=O)O)C3)C2)nc(NC(C)c2ccc(Cl)cc2Cl)c1Cl (single isomer, unassigned) [Compound 18 isomer 2] | < 100
8 | Cc1nc(C2CN(C3CCCN(C4CC(C)(C(=O)O)C4)C3)C2)nc(NC(C)c2ccc(Cl)cc2Cl)c1Cl (single isomer, unassigned) [Compound 20 isomer 3] | < 100
9 | C#Cc1ccc(C(C)Nc2nc(N3CC(C4CN(C5CC(C)(C(=O)O)C5)CCO4)C3)nc(C)c2Cl)c(Cl)c1 (single isomer, unassigned) [Compound 28 isomer 1] | < 100
10 | C[C@@H](Nc1cc(N2CC(C3CN(C4CC(C)(C(=O)O)C4)CCO3)C2)ncn1)c1ccc(Cl)cc1Cl (single isomer, unassigned) [Compound 29 isomer 1] | 100 to 500
11 | C#Cc1cc(Cl)ccc1C(C)Nc1nc(N2CC(C3CN(C4CC(C)(C(=O)O)C4)CCO3)C2)nc(C)c1Cl (single isomer, unassigned) [Compound 30 isomer 1] | < 100
12 | CC(Nc1nc(N2CC(C3CN(C4CC(C)(C(=O)O)C4)CCO3)C2)ncc1Br)c1ccc(Cl)cc1Cl (single isomer, unassigned) [Compound 37 isomer 1] | < 100
13 | CC(Nc1nc(N2CC(C3CN(C4CC(C)(C(=O)O)C4)CCO3)C2)ncc1Br)c1ccc(Cl)cc1Cl (single isomer, unassigned) [Compound 37 isomer 2] | 100 to 500
14 | CC(Nc1nc(N2CC(C3CN(C4CC(C)(C(=O)O)C4)CCO3)C2)ncc1Cl)c1ccc(Cl)cc1Cl (single isomer, unassigned) [Compound 42 isomer 1] | < 100
15 | C[C@@H](Nc1nc(N2CC(C3CN(C4CC(C)(C(=O)O)C4)CCO3)C2)nc2ccsc12)c1ccc(Cl)cc1Cl (single isomer, unassigned) [Compound 54 isomer 1] | 100 to 500
16 | CC(Nc1nc(N2CC(C3CN(C4CC(C)(C(=O)O)C4)CCO3)C2)c2ccccc2n1)c1ccc(Cl)cc1Cl (single isomer, unassigned) [Compound 60 isomer 1] | 100 to 500
17 | CC(Nc1nc(N2CC(F)(C3CN(C4CC(C)(C(=O)O)C4)CCO3)C2)nc(C(F)(F)F)c1Cl)c1ccc(Cl)cc1Cl (single isomer, unassigned) [Compound 65 isomer 3] | 100 to 500
18 | CC(Nc1nc(N2CC(F)(C3CN(C4CC(C)(C(=O)O)C4)CCO3)C2)nc(C(F)F)c1Cl)c1ccc(Cl)cc1Cl (single isomer, unassigned) [Compound 66 isomer 3] | 100 to 500
19 | C[C@@H](Nc1nc(N2CC(C3CN(C4CC(C)(C(=O)O)C4)CCO3)C2)nc2ccccc12)c1ccc(Cl)cc1Cl (single isomer, unassigned) [Compound 67 isomer 1] | < 100
20 | C[C@@H](Nc1nc2c(c(N3CC(C4CN(C5CC(C)(C(=O)O)C5)CCO4)C3)n1)CN(C)C2)c1ccc(Cl)cc1Cl (single isomer, unassigned) [Compound 68 isomer 1] | 100 to 500
21 | Cc1nc(N2CC(C3CN(C4CC(C)(c5nn[nH]n5)C4)CCO3)C2)nc(NC(C)c2ccc(Cl)cc2Cl)c1Cl (single isomer, unassigned) [Compound 71 isomer 1] | 100 to 500
22 | CC(Nc1nc(N2CC(C3CN(C4CC(C)(C(=O)O)C4)CCC34CC4)C2)nc(C(F)F)c1Cl)c1ccc(Cl)cc1Cl (single isomer, unassigned) [Compound 74 isomer 3] | 100 to 500

Row | SMILES | IC50 [nM]
23 | CC(Nc1cc(C#CC2CCCN(C3CC(C)(C(=O)O)C3)C2)ccc1Cl)c1ccc(Cl)cc1Cl (single isomer, unassigned) [Compound 75 isomer 2] | 100 to 500
24 | C[C@@H](Nc1nc(N2CC(C3CN(C4CC(C)(C(=O)O)C4)CCO3)C2)nc(C(F)F)c1Cl)c1ccc(Cl)cc1Cl (single isomer, unassigned) [Compound 77 isomer 2] | < 100
25 | Cc1nc(N2CC(C3CN(C4CC(c5nn[nH]n5)C4)CCO3)C2)nc(NC(C)c2ccc(Cl)cc2Cl)c1Cl (single isomer, unassigned) [Compound 79 isomer 1] | 100 to 500
26 | Cc1nc(N2CC(C3CN(C4CC(c5nn[nH]n5)C4)CCO3)C2)nc(NC(C)c2ccc(Cl)cc2Cl)c1Cl (single isomer, unassigned) [Compound 79 isomer 2] | 100 to 500
27 | Cc1nc(N2CC(C3CN(CCO)CCN3C)C2)nc(NC(C)c2ccc(Cl)cc2Cl)c1Cl (single isomer, unassigned) [Compound 80 isomer 1] | < 100
28 | Cc1nc(N2CC(C3CN(C4CC(C)(C(=O)O)C4)CCN3C)C2)nc(NC(C)c2ccc(Cl)cc2Cl)c1Cl (single isomer, unassigned) [Compound 81 isomer 1] | 100 to 500
29 | Cc1nc(N2CC(F)(C3CN(C4CC(C(=O)O)C4)CCO3)C2)nc(N[C@H](C)c2ccc(Cl)cc2Cl)c1Cl (single isomer, unassigned) [Compound 84 isomer 1] | 100 to 500
30 | CC(Nc1nc(N2CC(C3C=CCN(C4CC(C)(C(=O)O)C4)C3)C2)nc(C(F)F)c1Cl)c1ccc(Cl)cc1Cl (single isomer, unassigned) [Compound 85 isomer 1] | < 100
31 | CC(Nc1cc(N2CC(F)(C3CN(C4CC(C)(C(=O)O)C4)CCO3)C2)ccc1Cl)c1ccc(Cl)cc1Cl (single isomer, unassigned) [Compound 86 isomer 1] | < 100
32 | CC(Nc1nc(N2CC(F)(C3CN(C4CC(C)(C(=O)O)C4)CCO3)C2)ncc1Cl)c1ccc(Cl)cc1Cl (single isomer, unassigned) [Compound 89 isomer 1] | < 100
33 | Cc1nc(N2CCC(C3CN(C4CC(C)(C(=O)O)C4)CCN3C)CC2)nc(NC(C)c2ccc(Cl)cc2Cl)c1Cl (single isomer, unassigned) [Compound 105 isomer 3] | < 100
34 | Cc1nc(N2CCC(F)(C3CN(C4CC(C)(C(=O)O)C4)CCO3)CC2)nc(NC(C)c2ccc(Cl)cc2Cl)c1Cl (single isomer, unassigned) [Compound 106 isomer 3] | < 100
35 | Cc1nc(N2CC=C(C3CN(C4CC(C)(C(=O)O)C4)CCO3)CC2)nc(NC(C)c2ccc(Cl)cc2Cl)c1Cl (single isomer, unassigned) [Compound 107 isomer 1] | < 100
36 | C[C@@H](Nc1cc(N2CCC(C3CN(C4CC(C)(C(=O)O)C4)CCO3)CC2)nc2ccnn12)c1ccc(Cl)cc1Cl (single isomer, unassigned) [Compound 111] | < 100
37 | C#Cc1c(C)nc(N2CC([C@H]3CCCN([C@H]4C[C@](C)(C(=O)O)C4)C3)C2)nc1N[C@H](C)c1ccc(Cl)cc1Cl [Compound 4] | < 100
38 | Cc1cc(N2CC([C@H]3CCCN([C@H]4C[C@](C)(C(=O)O)C4)C3)C2)nc(N[C@H](C)c2ccc(Cl)cc2Cl)n1 [Compound 12] | < 100
39 | Cc1nc(N2CC([C@H]3CCCN([C@H]4C[C@](C)(C(=O)O)C4)C3)C2)nc(NC(C)c2cc3c(cc2Cl)CC3)c1Cl (some centres unmarked) [Compound 13] | 100 to 500
40 | C[C@@H](Nc1cc(N2CC([C@H]3CCCN([C@H]4C[C@](C)(C(=O)O)C4)C3)C2)nc2ccnn12)c1ccc(Cl)cc1Cl [Compound 14] | < 100
41 | C[C@@H](Nc1cc(N2CC([C@H]3CCCN([C@H]4C[C@](C)(C(=O)O)C4)C3)C2)ncn1)c1ccc(Cl)cc1Cl [Compound 15] | < 100
42 | Cc1nc(N[C@H](C)c2ccc(Cl)cc2Cl)nc(N2CC([C@H]3CCCN([C@H]4C[C@](C)(C(=O)O)C4)C3)C2)n1 [Compound 17] | < 100
43 | C[C@H](c1ccc(Cl)cc1Cl)n1nc(C#N)c2ncc(N3CC(C4CN(CCO)CCO4)C3)nc21 (some centres unmarked) [Compound 19] | < 100
44 | C[C@@H](Nc1cc(N2CC([C@H]3CCCN([C@H]4C[C@](C)(C(=O)O)C4)C3)C2)cnn1)c1ccc(Cl)cc1Cl [Compound 21] | < 100
